Results reported in article PMC8815882, “Screening the pandemic response box identified benzimidazole carbamates, Olorofim and ravuconazole as promising drug candidates for the treatment of eumycetoma” (PLoS Neglected Tropical Diseases, 2022).
pIC50: −log10 of the molar value. Converted amounts (≈) assume the structure as drawn. Like-named read-outs stand apart in the source and are kept apart here.

Assays:
M. mycetomatis MM55 = assay: IC50 determination, 2-fold dilution series 16 to 0.03125 μM; assay type: cell-based, Madurella mycetomatis; details: for pIC50 / IC90: Madurella mycetomatis
[1] = tested on: M. mycetomatis isolate MM55; assay: M. mycetomatis grain infection model in G. mellonella larvae, survival; assay type: in vivo, Galleria mellonella; parameters: In vivo efficacy, Larvae survival %: concentration or dose not given beside the values
[2] = tested on: M. mycetomatis genome strain MM55; assay: CLSI M38-A2 based in vitro susceptibility screening (XTT or resazurin), growth at fixed concentration; assay type: cell-based, Madurella mycetomatis; details: Madurella mycetomatis
[3] = tested on: ten different M. mycetomatis isolates; assay: MIC / MIC50 determination (XTT) in ten M. mycetomatis isolates; assay type: cell-based, Madurella mycetomatis; details: Madurella mycetomatis
[4] = tested on: ten different M. mycetomatis isolates; parameters: method as in PMID 24945848, PMID 22964246, PMID 31904836; details: asterisk: determined in previous works ref 19-21; cited from earlier work
[5] = tested on: Me. romeroi strain CBS128765; assay: CLSI M38-A2 based in vitro susceptibility screening at 25 μM; assay type: cell-based, Medicopsis romeroi; details: selected if >75% (resazurin) or >80% (XTT) fungal growth inhibited
[6] = tested on: F. senegalensis strain CBS132257; assay: as above; assay type: cell-based, Falciformispora senegalensis; details: selected if >75% (resazurin) or >80% (XTT) fungal growth inhibited
[7] = MM55, Table 2, M. mycetomatis MM55, read-out: IC50
[8] = MM55, mean, read-out: IC50 mean
[9] = MM55, replicate 1, read-out: IC50 1
[10] = MM55, replicate 1, read-out: IC90 1
[11] = MM55, replicate 2, read-out: IC50 2
[12] = MM55, replicate 2, read-out: IC90 2
[13] = MM55, replicate 3, read-out: IC50 3
[14] = MM55, replicate 3, read-out: IC90 3
[15] = mean, read-out: Percentage survival at 25um, 25 uM mean
[16] = replicate A, read-out: Percentage survival at 25um, 25 um A
[17] = replicate B, read-out: Percentage survival at 25um, 25 uM B
[18] = replicate C, read-out: Percentage survival at 25um, 25 uM C
[19] = mean, read-out: Percentage survival at 100um, 100 uM mean
[20] = replicate (first column), read-out: Percentage survival at 100um, 100 uM A
[21] = replicate (second column), read-out: Percentage survival at 100um, 100 uM A
[22] = replicate (third column), read-out: Percentage survival at 100um, 100 uM A

SMILES | Drug static or cidal (M. mycetomatis MM55) | pIC50 (M. mycetomatis MM55; [7]) | pIC50 (M. mycetomatis MM55; [8]) | IC90 (M. mycetomatis MM55; MM55, read-out: IC90 mean) [nM] | pIC50 (M. mycetomatis MM55; [9]) | IC90 (M. mycetomatis MM55; [10]) [nM] | pIC50 (M. mycetomatis MM55; [11]) | IC90 (M. mycetomatis MM55; [12]) [nM] | pIC50 (M. mycetomatis MM55; [13]) | IC90 (M. mycetomatis MM55; [14]) [nM] | In vivo efficacy, Enhanced survival compared to control? [1] | In vivo efficacy, Larvae survival % [1] [%] | activity at 25 µM [2, 15] [%] | activity at 25 µM [2, 16] [%] | activity at 25 µM [2, 17] [%] | activity at 25 µM [2, 18] [%] | activity at 100 µM [2, 19] [%] | activity at 100 µM [2, 20] [%] | activity at 100 µM [2, 21] [%] | activity at 100 µM [2, 22] [%] | further results
O[C@@](Cn1cnnn1)(c1ccc(F)cc1F)C(F)(F)c1ccc(-c2ccc(OCC(F)(F)F)cc2)cn1 [MMV1634386, Oteseconazole, reference compound] | Cidal | 5.58 | 5.57 | 5170 | 5.67 | 5000 | 5.56 | 5000 | 5.51 | 5500 | no | 11.1 | -1.26 | -1.75 | -2.55 | 0.501 | 7.07 | -1.99 | 9.06 | 14.2 | MIC50 ([3]; median MIC over ten M. mycetomatis isolates, no asterisk, read-out: MIC50): 1 µM (≈ 0.527 µg/mL); MIC50 ([3]; over the isolates tested, read-out: MIC50 mean): 1 µM (≈ 0.527 µg/mL); MIC ([3]; isolate CBS247.48, read-out: MIC CBS247.48): 16 µM (≈ 8.44 µg/mL); MIC ([3]; isolate MM14, read-out: MIC MM14): 1 µM (≈ 0.527 µg/mL); MIC ([3]; isolate MM45, read-out: MIC MM45): 1 µM (≈ 0.527 µg/mL); MIC ([3]; isolate MM55, read-out: MIC MM55): 4 µM (≈ 2.11 µg/mL); MIC ([3]; isolate P1, read-out: MIC P1): 2 µM (≈ 1.05 µg/mL); MIC ([3]; isolate ParijsAl1, read-out: MIC ParijsAl1): 2 µM (≈ 1.05 µg/mL); MIC ([3]; isolate Peru72012, read-out: MIC Peru72012): 4 µM (≈ 2.11 µg/mL); MIC ([3]; isolate So1, read-out: MIC So1): 1 µM (≈ 0.527 µg/mL); MIC ([3]; isolate i1, read-out: MIC i1): 0.25 µM (≈ 0.132 µg/mL); MIC ([3]; isolate i11, read-out: MIC i11): 8 µM (≈ 4.22 µg/mL)
CNCC(=O)OCc1cccnc1N(C)C(=O)OC(C)[n+]1cnn(C[C@](O)(c2cc(F)ccc2F)[C@@H](C)c2nc(-c3ccc(C#N)cc3)cs2)c1 (stereo partly drawn) [MMV1634494, Isavuconazonium, reference compound] | Cidal | 7.40 | 6.20 | 1080 | 6.46 | 680 | 6.12 | 1300 | 6.10 | 1260 |  |  | -2.78 | -3.3 | -6.46 | 1.41 | 7.96 | 2.09 | 14.1 | 7.75 | MIC50 [4]: 0.04 µM; MIC range [4]: <0.02 to 0.17 µM
C[C@@H](c1nc(-c2ccc(C#N)cc2)cs1)[C@](O)(Cn1cncn1)c1ccc(F)cc1F [MMV1634362, Ravuconazole] | Cidal | 8.00 | > 7.01 |  | > 7.01 | < 98 | 5.98 | 4000 | > 7.01 | 2750 | yes * | 26.7 | -1.1 | -3.16 | -3.36 | 3.22 | 4.1 | -3.18 | 5.51 | 9.97 | Inhibits growth of Medicopsis romeroi at 25 μM [5]: neither F. senegalensis nor Me. romeroi growth were inhibited; Inhibits growth of Falciformispora senegalensis at 25 μM [6]: neither F. senegalensis nor Me. romeroi growth were inhibited; Larvae survival rate on day ten ([1]; 20 μM per larvae at 4, 28, 52 h after infection, day ten): 26.7%; Effect on larvae survival Day 4 (words) ([1]; 20 μM per larvae, vs infected control, day four): prolonged larvae survival; Effect on larvae survival Day 10 (words) ([1]; 20 μM per larvae, vs infected control, day ten): able to prolong larvae survival; MIC50 [4]: 0.01 µM (≈ 0.00437 µg/mL); MIC range [4]: 0.004 to 0.06 µM
